This note sets out measurements from patent US12662490B2, “Heterocyclic compounds” (Hoffmann-La Roche Inc., priority 2019, dated 2026).

Molecules are shown by their SMILES.

In the experiment the target is T1, MAGL (Homo sapiens, UniProt Q99685).
T1 sequence (Q99685 1-303): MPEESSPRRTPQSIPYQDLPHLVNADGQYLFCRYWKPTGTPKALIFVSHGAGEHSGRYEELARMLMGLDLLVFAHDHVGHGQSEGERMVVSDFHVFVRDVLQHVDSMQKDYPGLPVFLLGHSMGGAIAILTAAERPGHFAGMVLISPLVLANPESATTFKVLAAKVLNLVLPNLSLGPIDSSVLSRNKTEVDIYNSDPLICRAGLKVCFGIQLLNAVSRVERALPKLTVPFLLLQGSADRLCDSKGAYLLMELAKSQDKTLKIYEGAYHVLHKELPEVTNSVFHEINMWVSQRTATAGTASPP
Kind of experiment: 2-AG assay (MAGL inhibitory activity; hydrolysis of 2-arachidonoylglycerol to arachidonic acid followed by mass spectrometry). It counts as biochemical. The conditions noted are these: 15 min preincubation at RT, 8 μM 2-arachidonoylglycerol, 30 min at RT, RapidFire MS readout. On the procedure: Compounds were profiled for MAGL inhibitory activity by determining the enzymatic activity by following the hydrolysis of the natural substrate 2-arachidonoylglycerol (2-AG) resulting in arachidonic acid, which can be followed by mass spectrometry. This assay is hereinafter abbreviated “2-AG assay”.
The 2-AG assay was carried out in 384 well assay plates (PP, Greiner Cat #784201) in a total volume of 20 μL. Compound dilutions were made in […] (VWR Chemicals 23500.297) in a polypropylene plate in 3-fold dilution steps to give a final concentration range in the assay from 12.5 μM to […]. 0.25 μL compound dilutions (100% DMSO) were added to 9 μL MAGL in assay buffer (50 mM TRIS (GIBCO, 15567-027), 1 mM EDTA (Fluka, 03690-100 mL), 0.010 (v/v) Tween. After shaking, the plate was incubated for 15 min at RT. To start the reaction, 10 μL 2-arachidonoylglycerol in assay buffer was added. The final concentrations in the assay was […] and 8 μM 2-arachidonoylglyerol. After shaking and 30 min incubation at RT, the reaction was quenched by the addition of 40 μL of ACN containing 4 μM of d8-arachidonic acid. The amount of arachidonic acid was traced by an online SPE system (Agilent Rapidfire) coupled to a triple quadrupole mass spectrometer (Agilent 6460). A C18 SPE cartridge (G9205A) was used in an ACN/water liquid setup. The mass spectrometer was operated in negative electrospray mode following the mass transitions 303.1→259.1 for arachidonic acid and 311.1→267.0 for d8-arachidonic acid. The activity of the compounds was calculated based on the ratio of intensities [arachidonic acid/d8-arachidonic acid].
Turning to `COc1cccc(C(=O)N2CCN3C[C@@H](c4cncc(Cl)c4)OC[C@@H]3C2)c1Cl` (racemic) [Example 59, (2-chloro-3-methoxy-phenyl)-[rac-(3R,9aS)-3-(5-chloro-3-pyridyl)-3,4,6,7,9,9a-hexahydro-1H-pyrazino[2,1-c][1,4]oxazin-8-yl]methanone], the half-inhibitory concentration (IC50) was determined as 0.544 µM.

`COc1cccc(C(=O)N2CCN3C[C@@H](c4sc(C)nc4C)OC[C@@H]3C2)c1Cl` (single isomer, unassigned) [Example 51] returned an IC50 of 4.98 µM. With `COc1cccc(C(=O)N2CCN3C[C@H](c4sc(C)nc4C)OC[C@H]3C2)c1Cl` (single isomer, unassigned) [Example 52] the figure was 1.38 µM; with `COc1cccc(C(=O)N2CCN3C[C@@](O)(c4nc5ccccc5[nH]4)OC[C@@H]3C2)c1Cl` (single isomer, unassigned) [Example 60], 0.951 µM. With `COc1cccc(C(=O)N2CCN3C[C@](O)(c4nc5ccccc5[nH]4)OC[C@H]3C2)c1Cl` (single isomer, unassigned) [Example 61] the figure was 0.294 µM; with `COc1cccc(C(=O)N2CCN3C[C@@H](c4cccc(C(F)(F)F)n4)OC[C@@H]3C2)c1Cl` (single isomer, unassigned) [Example 63], 1.31 µM; with `COc1cccc(C(=O)N2CCN3C[C@H](c4cc(Cl)c(Cl)cn4)OC[C@H]3C2)c1Cl` (single isomer, unassigned) [Example 66], 0.531 µM.

As for `COc1cccc(C(=O)N2CCN3C[C@@H](c4cc(Cl)c(Cl)cn4)OC[C@@H]3C2)c1Cl` (single isomer, unassigned) [Example 67], inhibition was half-maximal at 0.0084 µM (IC50). This IC50 lies about 63-fold lower than the previous one. With `COc1cccc(C(=O)N2CCN3CC(c4ccc(F)c(Cl)c4)SC[C@@H]3C2)c1Cl` (single isomer, unassigned) [Example 161] the figure was 0.0031 µM; with `COc1cccc(C(=O)N2CCN3CC(c4ccc(F)c(Cl)c4)SC[C@@H]3C2)c1Cl` (single isomer, unassigned) [Example 162], 0.0216 µM; with `COc1cccc(C(=O)N2CCN3C[C@@H](c4ccc(F)c(Cl)c4)OC[C@]3(C)C2)c1Cl` (stereo in doubt) [Example 32, (2-chloro-3-methoxy-phenyl)-[(rel-3R,9aS)-3-(3-chloro-4-fluoro-phenyl)-9a-methyl-1,3,4,6,7,9-hexahydropyrazino[2,1-c][1,4]oxazin-8-yl]methanone], 0.335 µM. Take `COc1cccc(C(=O)N2CCN3C[C@H](c4ccc(F)c(Cl)c4)OC[C@@]3(C)C2)c1Cl` (stereo in doubt) [Example 33, (2-chloro-3-methoxy-phenyl)-[(rel-3S,9aR)-3-(3-chloro-4-fluoro-phenyl)-9a-methyl-1,3,4,6,7,9-hexahydropyrazino[2,1-c][1,4]oxazin-8-yl]methanone]: the IC50 was 1.91 µM. Compared with the last compound, the IC50 is about 5.7-fold higher. Compound `COc1cccc(C(=O)N2CCN3C[C@@H](c4ccc(F)c(Cl)c4)OC[C@@H]3C2)c1Cl` [Example 1, [(3R,9aS)-3-(3-chloro-4-fluoro-phenyl)-3,4,6,7,9,9a-hexahydro-1H-pyrazino[2,1-c][1,4]oxazin-8-yl]-(2-chloro-3-methoxy-phenyl)methanone] showed an IC50 of 0.0183 µM.

For the compound `O=C(c1cnc2sccc2c1Cl)N1CCN2C[C@@H](c3ccc(F)c(Cl)c3)OC[C@@H]2C1` [Example 5, (4-chlorothieno[2,3-b]pyridin-5-yl)-[(3R,9aS)-3-(3-chloro-4-fluoro-phenyl)-3,4,6,7,9,9a-hexahydro-1H-pyrazino[2,1-c][1,4]oxazin-8-yl]methanone], the IC50 turned out to be 0.0282 µM. With `COc1cccc(C(=O)N2CCN3C[C@@H](c4ccc(F)c(Br)c4)OC[C@@H]3C2)c1Cl` [Example 6, [(3R,9aS)-3-(3-bromo-4-fluoro-phenyl)-3,4,6,7,9,9a-hexahydro-1H-pyrazino[2,1-c][1,4]oxazin-8-yl]-(2-chloro-3-methoxy-phenyl)methanone] the figure was 0.0109 µM; with `O=C(c1cnc2[nH]ncc2c1Cl)N1CCN2C[C@@H](c3ccc(F)c(Cl)c3)OC[C@@H]2C1` [Example 8, [(3R,9aS)-3-(3-chloro-4-fluoro-phenyl)-3,4,6,7,9,9a-hexahydro-1H-pyrazino[2,1-c][1,4]oxazin-8-yl]-(4-chloro-1H-pyrazolo[3,4-b]pyridin-5-yl)methanone], 0.705 µM. `COc1cccc(C(=O)N2CCN3C[C@@H](c4ccc(F)c(Cl)c4)OC[C@@H]3C2)c1F` [Example 9, [(3R,9aS)-3-(3-chloro-4-fluoro-phenyl)-3,4,6,7,9,9a-hexahydro-1H-pyrazino[2,1-c][1,4]oxazin-8-yl]-(2-fluoro-3-methoxy-phenyl)methanone]: the IC50 amounted to 0.0856 µM. Against the preceding compound, the IC50 is about 8.2-fold lower. The compound `COc1cccc(C(=O)N2CCN3C[C@@H](c4ccc(F)c(-c5ccccc5)c4)OC[C@@H]3C2)c1Cl` [Example 11, [(3R,9aS)-3-(4-fluoro-3-phenyl-phenyl)-3,4,6,7,9,9a-hexahydro-1H-pyrazino[2,1-c][1,4]oxazin-8-yl]-(2-chloro-3-methoxy-phenyl)methanone] came in with a half-maximal inhibitory concentration (IC50) of 0.259 µM. Compared with the last compound, the IC50 is about 3-fold higher. Under `COc1cccc(C(=O)N2CCN3C[C@H](c4ccc(F)c(-c5ccccc5)c4)OC[C@@H]3C2)c1Cl` [Example 12, [(3S,9aS)-3-(4-fluoro-3-phenyl-phenyl)-3,4,6,7,9,9a-hexahydro-1H-pyrazino[2,1-c][1,4]oxazin-8-yl]-(2-chloro-3-methoxy-phenyl)methanone] stands 0.575 µM; under `CC#Cc1cc([C@@H]2CN3CCN(C(=O)c4cccc(OC)c4Cl)C[C@H]3CO2)ccc1F` [Example 13, [(3R,9aS)-3-(4-fluoro-3-prop-1-ynyl-phenyl)-3,4,6,7,9,9a-hexahydro-1H-pyrazino[2,1-c][1,4]oxazin-8-yl]-(2-chloro-3-methoxy-phenyl)methanone], 0.238 µM; under `COc1cccc(C(=O)N2CCN3C[C@@H](c4ccc(F)c(C#N)c4)OC[C@@H]3C2)c1Cl` [Example 14, [(3R,9aS)-3-(3-cyano-4-fluoro-phenyl)-3,4,6,7,9,9a-hexahydro-1H-pyrazino[2,1-c][1,4]oxazin-8-yl]-(2-chloro-3-methoxy-phenyl)methanone], 0.153 µM. `O=C(c1cnc2ccccc2c1Cl)N1CCN2C[C@@H](c3ccc(F)c(Cl)c3)OC[C@@H]2C1` [Example 16, [(3R,9aS)-3-(3-chloro-4-fluoro-phenyl)-3,4,6,7,9,9a-hexahydro-1H-pyrazino[2,1-c][1,4]oxazin-8-yl]-(4-chloro-3-quinolyl)methanone] registered an IC50 of 0.132 µM. This IC50 and that of the compound before are within 1.5-fold of each other. With `COc1cc(OC)c(Cl)c(C(=O)N2CCN3C[C@H](c4ccc(F)c(Cl)c4)OC[C@@H]3C2)c1` [Example 17, [(3S,9aS)-3-(3-chloro-4-fluoro-phenyl)-3,4,6,7,9,9a-hexahydro-1H-pyrazino[2,1-c][1,4]oxazin-8-yl]-(2-chloro-3,5-dimethoxy-phenyl)methanone] the figure was 4.57 µM; with `COc1cc(OC)c(Cl)c(C(=O)N2CCN3C[C@@H](c4ccc(F)c(Cl)c4)OC[C@@H]3C2)c1` [Example 18, [(3R,9aS)-3-(3-chloro-4-fluoro-phenyl)-3,4,6,7,9,9a-hexahydro-1H-pyrazino[2,1-c][1,4]oxazin-8-yl]-(2-chloro-3,5-dimethoxy-phenyl)methanone], 0.0512 µM.
